Literature values in patent publication US20050244462A1, “Devices and methods for treating a mammalian eye” (Allergan, Inc., priority 2004, published 2005).

Conditions: steroidal anti-inflammatory efficacy in vivo; 25 mg hydrocortisone equivalent to 1 mg dexamethasone; Goodman and Gilman 8th ed. p. 1447

C[C@]12CCC(=O)C=C1CC[C@@H]1[C@@H]2[C@@H](O)C[C@@]2(C)[C@H]1CC[C@]2(O)C(=O)CO [hydrocortisone]
potency relative to dexamethasone: approximately twentyfivefold less potent than dexamethasone
